# Laboratory results published in publication PMC3138742 (PLoS ONE, 2011).
# Entries after “also recorded” stand apart in the source; their conditions may differ.
# How the values were obtained:
# Calu-3 xenograft = test: Human tumor xenograft model, tumor growth; format: in vivo; conditions: nude mice, p.o. twice daily
# Description: (§1) The mice were housed and maintained under specific-pathogen free (SPF) conditions. All animal procedures were performed according to the protocol approved by the Institutional Animal Care and Use Committee at Shanghai Institute of Materia Medica, Chinese Academy of Sciences (SIMM-AE-DJ-2010-01). Under sterile conditions, well-developed tumors were cut into 1-mm^3 fragments and transplanted s.c. into the right flank of nude mice using a trocar. When the tumor reached a volume reached 100 to 200 mm^3, the mice were randomly assigned into control and treatment groups. […] The sizes of the tumors were measured twice per week using microcalipers. The tumor volume (V) was calculated as follows: V = (length×width^2)/2. The body weights of the mice were observed simultaneously.
# SK-OV-3 xenograft = test: Human tumor xenograft model, tumor growth; format: in vivo; conditions: nude mice, p.o. twice daily
# Description: as §1
# HO-8910 xenograft = test: Human tumor xenograft model, tumor growth; format: in vivo; conditions: nude mice, p.o. twice daily
# Description: as §1
# A549 xenograft = test: Human tumor xenograft model, tumor growth; format: in vivo; conditions: nude mice, p.o. twice daily
# Description: as §1
# SYK = SYK (Homo sapiens, UniProt P43405); conditions: cell-free
# Description: (§2) The tyrosine kinase activities were determined using enzyme-linked immunosorbant assay (ELISA). The serine/threonine kinase activities were detected by Caliper Mobility Shift Assay on EZ Reader (Caliper Life Sciences, MA) according to the instruction.
# (§3) The kinase domain of EGFR, ErbB-2, IGF1R, VEGFR2, FGFR1, PDGFRα, c-Src, c-Met, RON, c-Kit, EphA2 and EphB2 were expressed using the Bac-to-Bac^TM baculovirus expression system (Invitrogen, Carlsbad, CA, USA) and purified on Ni-NTA columns (QIAGEN Inc., Valencia, CA, USA). VEGFR1, PDGFRβ and c-Abl were purchased from Upstate Biotechnology Inc. (Charlottesville, Virginia, USA). […] EGF was purchased from R&D, Minneapolis, […]. Poly(Glu-Tyr)(4:1), the substrate of tyrosine kinase, was from Sigma-Aldrich Corp. St. Louis, MO, USA.
# (§4) The tyrosine kinase activities were determined in 96-well ELISA plates (Corning, NY, USA) precoated with 20 μg/mL Poly (Glu,Tyr)4:1. First, 80 μL of 5 μM ATP solution diluted in kinase reaction buffer (50 mM HEPES pH 7.4, 20 mM MgCl2, 0.1 mM MnCl2, 0.2 mM Na3VO4, 1 mM DTT) was added to each well. […] Subsequently, the kinase reaction was initiated by the addition of purified tyrosine kinase proteins diluted in 10 μL of kinase reaction buffer solution. Experiments at each concentration were performed in duplicate. After incubation for 60 min at 37 °C, the plate was washed three times with phosphate buffered saline (PBS) containing 0.1% Tween 20 (T-PBS). Next, 100 μL anti-phosphotyrosine antibody (PY99, 1:500 dilution) diluted in T-PBS containing 5 mg/mL BSA was added. After 30 min incubation at 37 °C, the plate was washed three times as before. Horseradish peroxidase-conjugated goat anti-mouse IgG (100 μL) diluted 1:2000 in T-PBS containing 5 mg/ml BSA was added. The plate was reincubated at 37 °C for 30 min, and then washed with PBS.
# JAK2 = JAK2 (Homo sapiens, UniProt O60674); conditions: JAK2, cell-free
# Description: as §2, §3, §4
# Abl = Abl (Homo sapiens, UniProt P00519); conditions: cell-free
# Description: as §2, §3, §4
# FGFR1 = FGFR1 (Homo sapiens, UniProt P11362); conditions: FGFR1, cell-free
# Description: as §2, §3, §4
# c-Met = c-Met (Homo sapiens, UniProt P08581); conditions: cell-free
# Description: as §2, §3, §4
# EphA2 = EphA2 (Homo sapiens, UniProt P29317); conditions: EphA2, cell-free
# Description: as §2, §3, §4
# Tie2 = Tie2 (Homo sapiens, UniProt Q02763); conditions: Tie2, cell-free
# Description: as §2, §3, §4
# KDR = KDR (Homo sapiens, UniProt P35968); conditions: cell-free
# Description: as §2, §3, §4
# Flt-1 = Flt-1 (Homo sapiens, UniProt P17948); conditions: Flt-1, cell-free
# Description: as §2, §3, §4
# RON = RON (Homo sapiens, UniProt Q04912); conditions: cell-free
# Description: as §2, §3, §4
# [1] = system: EGFR phosphorylation in A549 cells; test: Western blot of EGF-induced EGFR phosphorylation; format: cell-based, human; conditions: 0.01 µM, 4 h, EGF 50 ng/ml 15 min
# [2] = system: NIH3T3-EGFR T790M/L858R cells; test: Cell proliferation SRB assay; format: cell-based; conditions: 72 h
# Description: as §2
# (§5) Cell viability was determined using sulforhodamine B assay. IC50 values were determined based on the results of three independent experiments. […] Whole-cell lysates were assayed for total EGFR and phosphorylation of EGFR by immunoblotting. […] Cell viability was determined using sulforhodamine B assay.
# EGFR T790M/L858R = target: T1, EGFR T790M/L858R (Homo sapiens, UniProt P00533, L858R/T790M); test: In vitro tyrosine kinase assay (ELISA); format: biochemical; conditions: EGFR T790M/L858R double mutant, cell-free; means ± SD
# T1 construct: purchased Cell Signaling Technology Inc
# Description: as §2, §3
# The tyrosine kinase activities were determined in 96-well ELISA plates (Corning, NY, USA) precoated with 20 μg/mL Poly (Glu,Tyr)4:1. First, 80 μL of 5 μM ATP solution diluted in kinase reaction buffer (50 mM HEPES pH 7.4, 20 mM MgCl2, 0.1 mM MnCl2, 0.2 mM Na3VO4, 1 mM DTT) was added to each well. […] Subsequently, the kinase reaction was initiated by the addition of purified tyrosine kinase proteins diluted in 10 μL of kinase reaction buffer solution. Experiments at each concentration were performed in duplicate. […]
# p70S6K = p70S6K (Homo sapiens, UniProt P23443); conditions: cell-free
# Description: as §2, §3
# Pim2 = Pim2 (Homo sapiens, UniProt Q9P1W9); conditions: Pim2, cell-free
# Description: as §2, §3
# GSK3b = GSK3b (Homo sapiens, UniProt P49841); conditions: cell-free
# Description: as §2, §3
# AKT1 = AKT1 (Homo sapiens, UniProt P31749); conditions: AKT1, cell-free
# Description: as §2, §3
# PKCb2 = PKCb2 (Homo sapiens, UniProt P05771); conditions: PKCb2, cell-free
# Description: as §2, §3
# AUR A = AUR A (Homo sapiens, UniProt O14965); conditions: cell-free
# Description: as §2, §3
# CDK2 = CDK2 (Homo sapiens, UniProt P24941); conditions: CDK2, cell-free
# Description: as §2, §3
# [3] = system: EGFR phosphorylation in NIH3T3-EGFR T790M/L858R cells; test: Western blot of EGFR phosphorylation; format: cell-based; conditions: 6 h, immunoblotting
# Description: as §5
# Chain of Flt-1 (P17948 27-1338): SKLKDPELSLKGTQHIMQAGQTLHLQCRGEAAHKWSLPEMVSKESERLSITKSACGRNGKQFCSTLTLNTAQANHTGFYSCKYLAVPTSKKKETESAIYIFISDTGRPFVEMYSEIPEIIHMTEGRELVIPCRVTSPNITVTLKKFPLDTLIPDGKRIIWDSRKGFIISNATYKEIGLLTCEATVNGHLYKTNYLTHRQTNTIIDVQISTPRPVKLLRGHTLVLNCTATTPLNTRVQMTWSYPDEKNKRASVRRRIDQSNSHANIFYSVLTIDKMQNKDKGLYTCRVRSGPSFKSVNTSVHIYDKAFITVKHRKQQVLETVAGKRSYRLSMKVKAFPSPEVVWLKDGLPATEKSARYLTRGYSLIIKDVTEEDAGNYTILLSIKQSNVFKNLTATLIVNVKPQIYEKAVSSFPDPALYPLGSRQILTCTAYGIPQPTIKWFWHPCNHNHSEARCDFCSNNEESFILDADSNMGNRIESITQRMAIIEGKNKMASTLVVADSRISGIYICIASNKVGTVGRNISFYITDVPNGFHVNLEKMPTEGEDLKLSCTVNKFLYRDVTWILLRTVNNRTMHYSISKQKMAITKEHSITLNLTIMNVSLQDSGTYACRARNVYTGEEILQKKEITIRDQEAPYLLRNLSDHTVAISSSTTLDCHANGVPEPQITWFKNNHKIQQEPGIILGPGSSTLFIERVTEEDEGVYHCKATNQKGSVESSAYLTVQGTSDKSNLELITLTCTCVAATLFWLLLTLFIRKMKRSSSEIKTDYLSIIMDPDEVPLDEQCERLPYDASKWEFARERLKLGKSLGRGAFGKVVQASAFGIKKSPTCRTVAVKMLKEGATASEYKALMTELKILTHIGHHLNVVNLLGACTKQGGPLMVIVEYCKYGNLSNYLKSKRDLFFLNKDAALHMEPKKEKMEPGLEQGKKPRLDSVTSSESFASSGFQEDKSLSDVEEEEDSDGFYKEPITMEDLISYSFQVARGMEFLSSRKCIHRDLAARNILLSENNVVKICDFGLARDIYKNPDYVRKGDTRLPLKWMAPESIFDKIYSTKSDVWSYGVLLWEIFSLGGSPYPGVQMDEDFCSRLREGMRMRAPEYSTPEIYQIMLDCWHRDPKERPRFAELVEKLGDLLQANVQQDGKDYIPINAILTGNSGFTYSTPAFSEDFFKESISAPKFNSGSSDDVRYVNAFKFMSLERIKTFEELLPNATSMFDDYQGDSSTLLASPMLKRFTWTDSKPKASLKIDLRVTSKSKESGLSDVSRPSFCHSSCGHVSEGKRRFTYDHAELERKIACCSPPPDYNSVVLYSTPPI
# Chain of Tie2 (Q02763 23-1124): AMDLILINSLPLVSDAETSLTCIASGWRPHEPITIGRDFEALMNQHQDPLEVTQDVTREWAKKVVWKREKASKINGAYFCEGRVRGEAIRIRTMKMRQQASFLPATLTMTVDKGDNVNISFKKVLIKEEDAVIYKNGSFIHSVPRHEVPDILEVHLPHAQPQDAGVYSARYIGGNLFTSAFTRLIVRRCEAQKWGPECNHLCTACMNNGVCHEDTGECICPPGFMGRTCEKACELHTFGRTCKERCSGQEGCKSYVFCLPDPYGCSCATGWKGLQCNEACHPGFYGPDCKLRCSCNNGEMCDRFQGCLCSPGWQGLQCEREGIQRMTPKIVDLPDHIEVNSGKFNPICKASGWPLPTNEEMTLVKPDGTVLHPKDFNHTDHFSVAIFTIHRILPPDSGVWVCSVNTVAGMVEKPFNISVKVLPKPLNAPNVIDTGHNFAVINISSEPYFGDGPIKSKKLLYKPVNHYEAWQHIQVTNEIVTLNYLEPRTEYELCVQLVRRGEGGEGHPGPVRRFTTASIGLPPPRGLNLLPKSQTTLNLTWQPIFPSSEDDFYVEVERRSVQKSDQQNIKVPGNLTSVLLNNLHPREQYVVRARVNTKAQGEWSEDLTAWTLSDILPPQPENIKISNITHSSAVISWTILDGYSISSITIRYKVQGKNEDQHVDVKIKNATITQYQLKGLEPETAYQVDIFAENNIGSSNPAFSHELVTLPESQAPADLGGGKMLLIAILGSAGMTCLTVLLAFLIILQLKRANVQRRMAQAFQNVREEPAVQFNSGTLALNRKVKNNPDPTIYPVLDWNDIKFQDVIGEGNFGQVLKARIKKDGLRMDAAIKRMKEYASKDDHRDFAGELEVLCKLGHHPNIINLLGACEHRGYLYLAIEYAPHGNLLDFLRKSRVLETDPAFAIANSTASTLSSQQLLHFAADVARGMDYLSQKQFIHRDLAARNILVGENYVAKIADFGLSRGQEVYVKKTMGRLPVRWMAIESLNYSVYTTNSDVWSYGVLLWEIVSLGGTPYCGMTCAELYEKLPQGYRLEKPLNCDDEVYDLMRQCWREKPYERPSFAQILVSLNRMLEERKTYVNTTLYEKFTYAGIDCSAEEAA
# Chain of KDR (P35968 834-1162 limits assumed): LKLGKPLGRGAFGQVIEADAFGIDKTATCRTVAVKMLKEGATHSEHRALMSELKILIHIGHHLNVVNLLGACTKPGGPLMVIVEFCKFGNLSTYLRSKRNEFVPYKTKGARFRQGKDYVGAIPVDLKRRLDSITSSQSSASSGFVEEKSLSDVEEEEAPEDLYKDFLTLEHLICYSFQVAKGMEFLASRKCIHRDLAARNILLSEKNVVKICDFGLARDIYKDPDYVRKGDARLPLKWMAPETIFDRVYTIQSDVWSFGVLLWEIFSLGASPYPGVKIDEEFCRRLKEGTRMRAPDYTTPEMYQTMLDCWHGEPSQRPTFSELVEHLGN
# Chain of PKCb2 (P05771 1-673 isoform P05771-2): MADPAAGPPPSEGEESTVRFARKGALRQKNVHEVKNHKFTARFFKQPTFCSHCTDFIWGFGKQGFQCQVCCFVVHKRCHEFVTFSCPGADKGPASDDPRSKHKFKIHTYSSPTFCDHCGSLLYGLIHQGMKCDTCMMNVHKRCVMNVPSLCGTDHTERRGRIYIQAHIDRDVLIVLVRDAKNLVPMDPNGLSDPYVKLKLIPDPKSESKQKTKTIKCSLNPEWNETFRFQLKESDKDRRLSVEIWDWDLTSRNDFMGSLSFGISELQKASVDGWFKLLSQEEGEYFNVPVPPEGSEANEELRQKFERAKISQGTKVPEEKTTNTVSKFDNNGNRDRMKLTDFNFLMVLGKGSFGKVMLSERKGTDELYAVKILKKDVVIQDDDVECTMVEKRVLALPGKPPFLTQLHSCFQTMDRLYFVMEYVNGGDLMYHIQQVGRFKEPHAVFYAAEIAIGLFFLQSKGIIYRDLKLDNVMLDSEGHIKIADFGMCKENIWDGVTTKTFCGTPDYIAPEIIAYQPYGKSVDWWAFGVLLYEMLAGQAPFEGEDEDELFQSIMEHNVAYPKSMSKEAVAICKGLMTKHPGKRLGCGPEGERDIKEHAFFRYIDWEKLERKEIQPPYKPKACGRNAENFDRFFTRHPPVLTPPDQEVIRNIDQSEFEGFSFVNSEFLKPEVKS
# Chain of Abl (P00519 whole entry, species assumed): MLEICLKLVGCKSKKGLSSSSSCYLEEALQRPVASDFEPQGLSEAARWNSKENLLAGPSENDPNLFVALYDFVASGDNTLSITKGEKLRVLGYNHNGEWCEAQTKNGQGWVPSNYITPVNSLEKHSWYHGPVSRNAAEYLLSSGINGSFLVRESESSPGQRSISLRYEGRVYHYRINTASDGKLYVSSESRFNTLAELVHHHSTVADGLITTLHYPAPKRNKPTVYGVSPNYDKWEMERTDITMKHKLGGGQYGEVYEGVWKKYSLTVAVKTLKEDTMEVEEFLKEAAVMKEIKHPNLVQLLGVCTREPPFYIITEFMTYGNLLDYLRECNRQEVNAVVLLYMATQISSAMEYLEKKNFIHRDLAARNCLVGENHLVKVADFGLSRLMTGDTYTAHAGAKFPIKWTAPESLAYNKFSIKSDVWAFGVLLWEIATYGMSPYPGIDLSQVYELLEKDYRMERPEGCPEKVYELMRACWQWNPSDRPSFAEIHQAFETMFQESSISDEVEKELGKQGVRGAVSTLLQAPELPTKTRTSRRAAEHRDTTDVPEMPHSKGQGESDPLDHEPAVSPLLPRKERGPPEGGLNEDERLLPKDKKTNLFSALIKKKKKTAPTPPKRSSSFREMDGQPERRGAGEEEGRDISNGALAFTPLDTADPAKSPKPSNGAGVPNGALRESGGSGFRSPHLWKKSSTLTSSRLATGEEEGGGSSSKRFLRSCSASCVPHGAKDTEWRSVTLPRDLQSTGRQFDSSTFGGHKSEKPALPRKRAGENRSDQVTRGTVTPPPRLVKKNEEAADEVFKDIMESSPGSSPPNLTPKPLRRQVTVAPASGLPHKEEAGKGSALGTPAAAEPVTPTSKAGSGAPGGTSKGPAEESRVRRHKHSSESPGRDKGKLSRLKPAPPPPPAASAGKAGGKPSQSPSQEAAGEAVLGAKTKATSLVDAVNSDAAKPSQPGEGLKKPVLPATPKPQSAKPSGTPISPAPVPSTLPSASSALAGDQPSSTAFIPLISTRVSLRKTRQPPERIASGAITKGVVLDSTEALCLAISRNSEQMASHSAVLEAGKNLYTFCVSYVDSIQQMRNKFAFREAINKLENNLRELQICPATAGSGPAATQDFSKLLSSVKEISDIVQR
# Chain of AUR A (O14965 whole entry): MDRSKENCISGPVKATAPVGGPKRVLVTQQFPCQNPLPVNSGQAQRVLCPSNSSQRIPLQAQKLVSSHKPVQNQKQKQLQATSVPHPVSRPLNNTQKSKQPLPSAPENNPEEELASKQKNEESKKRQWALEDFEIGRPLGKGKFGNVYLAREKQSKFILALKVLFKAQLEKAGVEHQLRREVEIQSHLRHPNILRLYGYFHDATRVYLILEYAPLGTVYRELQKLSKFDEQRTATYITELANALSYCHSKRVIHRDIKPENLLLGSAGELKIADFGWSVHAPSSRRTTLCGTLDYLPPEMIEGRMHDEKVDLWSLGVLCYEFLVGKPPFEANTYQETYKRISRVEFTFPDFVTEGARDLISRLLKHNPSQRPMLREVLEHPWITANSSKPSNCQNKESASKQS
compound,measurement,setting,value
C=CC(=O)Nc1ccc2ncnc(Nc3ccc(OCc4cccc(F)c4)c(Cl)c3)c2c1 [AST1306],tumor growth,Calu-3 xenograft,dramatic suppression of tumor growth
same,tumor growth,SK-OV-3 xenograft,dramatic suppression of tumor growth; also recorded: more efficacious than lapatinib
same,tumors after treatment for 7 d,SK-OV-3 xenograft; 7 d,tumors almost completely disappeared
same,tumor growth,HO-8910 xenograft,only slightly suppressed tumor growth
same,tumor growth,A549 xenograft,only slightly suppressed tumor growth
same,IC50,SYK,> 10 µM
same,IC50,JAK2,> 10 µM
same,IC50,Abl,> 10 µM
same,IC50,FGFR1,> 10 µM
same,IC50,c-Met,> 10 µM
same,IC50,EphA2,> 10 µM
same,IC50,Tie2,> 10 µM
same,IC50,KDR,> 10 µM
same,IC50,Flt-1,> 10 µM
same,IC50,RON,> 10 µM
same,EGF-induced EGFR phosphorylation (phospho-EGFR bands),[1],almost disappeared
same,inhibition of cell growth,[2],"significant, concentration-dependent inhibition"
same,IC50,EGFR T790M/L858R,12 ± 2 nM
same,IC50,p70S6K,> 10 µM
same,IC50,Pim2,> 10 µM
same,IC50,GSK3b,> 10 µM
same,IC50,AKT1,> 10 µM
same,IC50,PKCb2,> 10 µM
same,IC50,AUR A,> 10 µM
same,IC50,CDK2,> 10 µM
same,inhibition of EGFR phosphorylation,[3],effectively inhibited EGFR phosphorylation
